Data from ChEMBL document CHEMBL1201862, “PubChem BioAssay data set” (2004).
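Exposure lasted 48 hours, with cells grown in 96-well plates and compounds tested at five concentrations. At the GI50, growth is halved.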 Activity calls are given as the source filed them. Rule as the data show it: active = GI50 up to about 1.1 µM and inactive = higher.

How the values were obtained:
Assay in all cases: growth of human tumour cells (NCI), 48 h
A498 = tested on: A498
BT-549 = tested on: BT-549
DU-145 = tested on: DU-145
HCT-15 = tested on: HCT-15
HL-60 = tested on: HL-60
Hs-578T = tested on: Hs-578T
IGROV-1 = tested on: IGROV-1
M14 = tested on: M14
MCF7 = tested on: MCF7
MDA-MB-231 = tested on: MDA-MB-231
Malme-3M = tested on: Malme-3M
OVCAR-5 = tested on: OVCAR-5
PC-3 = tested on: PC-3
RPMI-8226 = tested on: RPMI-8226
SF-268 = tested on: SF-268
SK-MEL-5 = tested on: SK-MEL-5
SR = tested on: SR
U-251 = tested on: U-251
UACC-257 = tested on: UACC-257

SMILES | GI50 (A498) | GI50 (BT-549) | GI50 (DU-145) | GI50 (HCT-15) | GI50 (HL-60) | GI50 (Hs-578T) | GI50 (IGROV-1) | GI50 (M14) | GI50 (MCF7) | GI50 (MDA-MB-231) | GI50 (Malme-3M) | GI50 (OVCAR-5) | GI50 (PC-3) | GI50 (RPMI-8226) | GI50 (SF-268) | GI50 (SK-MEL-5) | GI50 (SR) | GI50 (U-251) | GI50 (UACC-257)
CCOC(=O)[C@@H]1CCN2CN(c3ccc(OC)cc3)N=C(c3ccccc3)[C@@]12c1ccccc1 | 21.6 µM (inactive) | 21.4 µM (inactive) | 22.6 µM (inactive) | 23.9 µM | 6.7 µM (inactive) | 23.4 µM (inactive) | 21.3 µM (inactive) | 20 µM (inactive) | 20.7 µM (inactive) | 31.6 µM (inactive) | 16.6 µM (inactive) | 32.2 µM (inactive) | 25.5 µM (inactive) | 14.1 µM (inactive) | 28.9 µM (inactive) | 13.2 µM (inactive) | 23.7 µM (inactive) | 28.9 µM (inactive) | 19.4 µM (inactive)
COc1cc2c(cc1OC)[C@H]1C(=O)c3cc4c(cc3[C@H]1N(C)C2=O)OCO4 | 8.43 µM (inactive) | > 49.4 µM (inactive) | 8.43 µM (inactive) | 14.7 µM | 1.77 µM (inactive) | > 94.6 µM (inactive) | 11.2 µM (inactive) | 2.92 µM (inactive) | 2.4 µM (inactive) | 28 µM (inactive) | 7.53 µM (inactive) | > 100 µM (inactive) | 9.04 µM (inactive) | 4.34 µM (inactive) | 4.17 µM (inactive) | 1.96 µM (inactive) | 0.557 µM (active) | 1.03 µM (active) | 6.32 µM (inactive)
N#Cc1c(N)c2c(c(-c3ccccc3)c1-c1ccccc1)C(=O)N(Nc1ccccc1)C2=O | 28.4 µM (inactive) | 56.1 µM (inactive) | 31.3 µM (inactive) | 45.7 µM | 22.8 µM (inactive) | 95.3 µM (inactive) | 34.8 µM (inactive) | 22.2 µM (inactive) | 47.8 µM (inactive) | > 100 µM (inactive) | > 100 µM (inactive) | 27 µM (inactive) | 28.3 µM (inactive) | 29.5 µM (inactive) | 59.2 µM (inactive) | 28.8 µM (inactive) | 36.2 µM (inactive) | 93.5 µM (inactive) | 48.6 µM (inactive)
COC(=N)C1(C#N)NC(c2ccsc2)C(C#N)(C#N)NC1c1ccsc1 (configuration not stated) | > 100 µM (inactive) | > 100 µM (inactive) | > 100 µM (inactive) | > 100 µM | 78.3 µM (inactive) | > 100 µM (inactive) | > 100 µM (inactive) | > 100 µM (inactive) | > 100 µM (inactive) | 76.7 µM (inactive) | > 100 µM (inactive) | > 100 µM (inactive) | 81.1 µM (inactive) | > 100 µM (inactive) | > 100 µM (inactive) | > 100 µM (inactive) | > 100 µM (inactive) | > 100 µM (inactive) | > 100 µM (inactive)
CC1OC(O[C@H]2CC[C@]3(C=O)[C@H]4CC[C@]5(C)[C@H](C6=CC(=O)OC6)CC[C@]5(O)[C@@H]4C=C[C@]3(O)C2)CC(O)C1O (some centres not stated) | 0.176 µM (active) | 0.224 µM (active) | 0.128 µM (active) | 0.289 µM | 0.196 µM (active) | 0.239 µM (active) | 0.157 µM (active) | 0.386 µM (active) | 0.272 µM (active) | 0.433 µM (active) | 0.13 µM (active) | 0.547 µM (active) | 0.306 µM (active) | 0.136 µM (active) | 0.176 µM (active) | 0.0991 µM (active) | 0.0933 µM (active) | 0.355 µM (active) | 0.579 µM (active)
COc1ccc(/C=C/c2nsc(/C=C/c3ccc(OC)cc3)n2)cc1 | > 100 µM (inactive) | > 100 µM (inactive) | > 100 µM (inactive) | 52.1 µM | 24.8 µM (inactive) | > 100 µM (inactive) | > 100 µM (inactive) | > 100 µM (inactive) | > 100 µM (inactive) | > 100 µM (inactive) | > 100 µM (inactive) | > 100 µM (inactive) | 48.5 µM (inactive) | 28.7 µM (inactive) | > 100 µM (inactive) | > 100 µM (inactive) | 27.3 µM (inactive) | 44.7 µM (inactive) | 41.4 µM (inactive)
S=c1cc(-c2ccc3c(c2)OCO3)s[nH]1 | 46.6 µM (inactive) | > 100 µM (inactive) | > 100 µM (inactive) | > 100 µM | > 100 µM (inactive) | > 100 µM (inactive) | > 100 µM (inactive) | > 100 µM (inactive) | > 100 µM (inactive) | > 100 µM (inactive) | > 100 µM (inactive) | > 100 µM (inactive) | > 100 µM (inactive) | > 100 µM (inactive) | > 100 µM (inactive) | > 100 µM (inactive) | > 100 µM (inactive) | > 100 µM (inactive) | > 100 µM (inactive)
Nc1ccc(Oc2ccc(C34CC5CC6C3CC3CC4C(C5)C6(c4ccc(Oc5ccc(N)cc5)cc4)C3)cc2)cc1 | 22.2 µM (inactive) | 34.4 µM (inactive) | 8.93 µM (inactive) | 21.8 µM | 7.14 µM (inactive) | 25.4 µM (inactive) | 23.8 µM (inactive) | 0.583 µM (active) | 36.2 µM (inactive) | 9.08 µM (inactive) | 0.216 µM (active) | > 100 µM (inactive) | 8.26 µM (inactive) | 13 µM (inactive) | 22.6 µM (inactive) | 0.561 µM (active) | 21.9 µM (inactive) | 2.9 µM (inactive) | 0.329 µM (active)
COC1(C)CCC(OS(C)(=O)=O)CO1 (configuration not stated) | > 100 µM (inactive) | > 100 µM (inactive) | > 100 µM (inactive) | > 100 µM | > 100 µM (inactive) | > 100 µM (inactive) | > 100 µM (inactive) | > 100 µM (inactive) | > 100 µM (inactive) | > 100 µM (inactive) | > 100 µM (inactive) | > 100 µM (inactive) | > 100 µM (inactive) | > 100 µM (inactive) | > 100 µM (inactive) | > 100 µM (inactive) | > 100 µM (inactive) | > 100 µM (inactive) | > 100 µM (inactive)
Cn1c2ccccc2c(=O)c2cccc(C(=O)NC(CCC(N)=O)C(=O)O)c21 (configuration not stated) | > 100 µM (inactive) | > 100 µM (inactive) | > 100 µM (inactive) | > 100 µM | 0.0585 µM (active) | > 100 µM (inactive) | > 100 µM (inactive) | > 100 µM (inactive) | > 100 µM (inactive) | > 100 µM (inactive) | > 100 µM (inactive) | > 100 µM (inactive) | > 100 µM (inactive) | > 100 µM (inactive) | > 100 µM (inactive) | > 100 µM (inactive) | 62.1 µM (inactive) | > 100 µM (inactive) | > 100 µM (inactive)
COc1cccc(Nc2nc(-c3cccs3)nc3cc(OC)c(OC)cc23)c1 | 18.9 µM (inactive) | 25.9 µM (inactive) | 55.6 µM (inactive) | 26.6 µM | 42.1 µM (inactive) | 27.4 µM (inactive) | 21.6 µM (inactive) | 35.2 µM (inactive) | 24.5 µM (inactive) | 23 µM (inactive) | 68.9 µM (inactive) | 31.9 µM (inactive) | 27.9 µM (inactive) | 13.2 µM (inactive) | 40.9 µM (inactive) | 25.4 µM (inactive) | 11 µM (inactive) | 23.8 µM (inactive) | 36.8 µM (inactive)
O=C1OC(C2(O)OC(=O)c3ccccc32)c2ccccc21 (configuration not stated) | > 100 µM (inactive) | > 100 µM (inactive) | > 100 µM (inactive) | > 100 µM | > 100 µM (inactive) | > 100 µM (inactive) | > 100 µM (inactive) | > 100 µM (inactive) | > 100 µM (inactive) | > 100 µM (inactive) |  | > 100 µM (inactive) | > 100 µM (inactive) | > 100 µM (inactive) | > 100 µM (inactive) | > 100 µM (inactive) | > 100 µM (inactive) | > 100 µM (inactive) | > 100 µM (inactive)
C[C@@H]1CCC2[C@@H](C)[C@@H](O[C@H]3O[C@@H]4O[C@@]5(C)CCC6[C@H](C)CCC([C@H]3C)[C@]64OO5)O[C@@H]3O[C@@]4(C)CCC1[C@@]23OO4 (some centres not stated) | > 25 µM (inactive) | 1.23 µM (inactive) | > 25 µM (inactive) | 0.733 µM | 0.5 µM (active) | 7.05 µM (inactive) | > 25 µM (inactive) | > 25 µM (inactive) | 1.51 µM (inactive) | > 25 µM (inactive) |  | > 25 µM (inactive) | 0.18 µM (active) | 0.586 µM (active) | > 25 µM (inactive) | 3.44 µM (inactive) | 0.724 µM (active) | > 25 µM (inactive) | > 25 µM (inactive)
CO[C@H]1C[C@@H]2CC[C@@H](C)[C@@](O)(O2)C(=O)C(=O)N2CCCC[C@H]2C(=O)O[C@H]([C@H](C)C[C@@H]2CC[C@@H](OC(=O)C(C)(CO)CO)[C@H](OC)C2)CC(=O)[C@H](C)/C=C(\C)[C@@H](O)[C@@H](OC)C(=O)[C@H](C)C[C@H](C)/C=C/C=C/C=C/1C [TEMSIROLIMUS] | 0.0363 µM (active) | 0.00904 µM (active) | 0.0975 µM (active) | 0.0849 µM | 2.72 µM (inactive) | 0.00724 µM (active) |  | 0.0417 µM (active) | 0.00538 µM (active) | 0.0217 µM (active) | 0.000199 µM (active) | 0.00363 µM (active) | 0.00123 µM (active) | 0.000292 µM (active) | 0.00873 µM (active) | 0.0792 µM (active) | 0.000361 µM (active) |  | 1.99 µM (inactive)
